Consider 3 molecules from ChEMBL document CHEMBL5346892, “Design and synthesis of benzochromene derivatives as AcrB inhibitors for the reversal of bacterial multidrug resistance” (Eur J Med Chem, 2023).

Structures are written as SMILES.

The inhibition is the percentage by which the read-out fell short of the control. The MIC is the least concentration at which growth counts as inhibited.

For experiment [1], the target named is T1, Multidrug efflux pump subunit AcrB (Escherichia coli (strain K12)) (UniProt P31224).
T1 sequence (whole entry): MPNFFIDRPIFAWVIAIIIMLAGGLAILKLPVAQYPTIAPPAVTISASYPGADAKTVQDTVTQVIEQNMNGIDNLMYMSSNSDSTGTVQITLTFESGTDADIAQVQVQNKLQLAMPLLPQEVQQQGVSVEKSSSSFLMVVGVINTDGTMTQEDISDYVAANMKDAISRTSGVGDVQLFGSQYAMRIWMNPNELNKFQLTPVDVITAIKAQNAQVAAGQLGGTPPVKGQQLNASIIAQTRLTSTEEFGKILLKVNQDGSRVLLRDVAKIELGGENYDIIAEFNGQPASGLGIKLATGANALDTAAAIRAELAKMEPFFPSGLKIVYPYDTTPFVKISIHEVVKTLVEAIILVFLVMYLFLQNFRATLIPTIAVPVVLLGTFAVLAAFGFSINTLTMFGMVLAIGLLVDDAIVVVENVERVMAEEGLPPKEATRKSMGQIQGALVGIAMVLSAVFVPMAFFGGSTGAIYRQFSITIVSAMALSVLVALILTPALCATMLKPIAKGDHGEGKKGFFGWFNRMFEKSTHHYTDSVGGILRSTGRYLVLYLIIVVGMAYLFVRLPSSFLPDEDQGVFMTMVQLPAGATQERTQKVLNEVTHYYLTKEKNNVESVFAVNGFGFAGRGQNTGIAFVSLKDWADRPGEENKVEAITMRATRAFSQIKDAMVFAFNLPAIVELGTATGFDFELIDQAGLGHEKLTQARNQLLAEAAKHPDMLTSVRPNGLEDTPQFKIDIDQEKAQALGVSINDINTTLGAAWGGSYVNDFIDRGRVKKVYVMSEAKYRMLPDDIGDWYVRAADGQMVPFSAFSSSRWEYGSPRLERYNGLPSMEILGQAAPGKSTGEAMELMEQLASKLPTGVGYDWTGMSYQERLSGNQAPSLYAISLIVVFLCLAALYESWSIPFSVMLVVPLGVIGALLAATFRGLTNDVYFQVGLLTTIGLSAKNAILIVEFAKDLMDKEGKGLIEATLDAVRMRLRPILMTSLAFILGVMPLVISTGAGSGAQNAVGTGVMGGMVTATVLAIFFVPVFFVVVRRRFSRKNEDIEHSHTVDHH
The experiment in a line: Inhibition of Escherichia coli BW25113 AcrB assessed as inhibition of nile red efflux at 200 uM incubated for 15 mins.

For experiment [2], the system named is Escherichia coli. The experiment in a line: Synergistic antibacterial activity against wild type Escherichia coli BW25113 assessed as fold decrease in erythromycin MIC at 64 microg/ml incubated for 18 hrs by checkboard based microplate reader analysis. The conditions noted are these: dose 64 µg/ml. It counts as functional.
Experiment [3] relates to Escherichia coli. The experiment in a line: Synergistic antibacterial activity against wild type Escherichia coli BW25113 assessed as fold decrease in minocycline MIC at 128 microg/ml incubated for 18 hrs by checkboard based microplate reader analysis. The conditions noted are these: dose 128 µg/ml. The class given is functional.
The test system of experiment [4] is Escherichia coli. The experiment in a line: Synergistic antibacterial activity against wild type Escherichia coli BW25113 assessed as levofloxacin MIC at 2 microg/ml incubated for 18 hrs in presence of colistin by broth dilution assay. It counts as functional. The following applies: dose 2 µg/ml. On the technique in general: Dilution methods test growth across graded concentrations, often in twofold steps.

Experiment [5] has as its system Escherichia coli. The experiment in a line: Synergistic antibacterial activity against wild type Escherichia coli BW25113 assessed as fold decrease in erythromycin MIC at 8 to 128 microg/ml incubated for 18 hrs by checkboard based microplate reader analysis. It counts as functional. The conditions noted are these: dose 8-128 µg/ml.
The test system of experiment [6] is Escherichia coli. The experiment in a line: Synergistic antibacterial activity against wild type Escherichia coli BW25113 assessed as erythromycin MIC at 1 microg/ml incubated for 18 hrs in presence of colistin by broth dilution assay. The conditions noted are these: dose 1 µg/ml. It counts as functional.

For the molecule `CC1(C)CCc2c(C(=O)N3CCOCC3)cc3c(OCCSc4ccc([N+](=O)[O-])cc4)cccc3c2O1`, the inhibition in experiment [1] was determined as 100%.

Take `CC1(C)CCc2c(C(=O)N3CCOCC3)cc3c(OCCCOc4cccc(C(=O)O)c4)cccc3c2O1`: the “fold change (FC)” value in the experiment on Escherichia coli [2] and in the experiment with Escherichia coli [3] was 4 each time.

In the case of `CC1(C)CCc2c(C(=O)N3CCOCC3)cc3c(OCCN4CCN(c5ccccc5)CC4)cccc3c2O1`, the MIC stood at 0.032 µg/mL in the experiment with Escherichia coli [4] and 16 µg/mL in the experiment on Escherichia coli [6]. For the same molecule, the “fold change (FC)” value with Escherichia coli [5] was 16.
